{"source": "paper PMC10436550", "about": "“Subacute toxicity evaluations of LPM3480392 in rats, a full µ-opioid receptor biased agonist” (Frontiers in Pharmacology, 2023)", "assay": "Toxicokinetics, plasma LPM3480392 after intravenous administration", "assay_type": "in vivo, Sprague Dawley (SD) rats", "details": "Sprague-Dawley, rat, plasma; for concentration at 2 min: intravenous; for AUC(0-t): iv, read-out: AUC0–12h", "description": "Blood samples from animals in LPM3480392 groups were collected at predose and 2 min, 30 min, 1 h and 4 h postdose of the 1st dosing on Days 1 and 28; at 2 min and 4 h postdose of the 2nd dosing on Days 1 and 28; at 2 min, 1 h and 4 h postdose the 3rd dosing on Days 1 and 28. Animals in control group were sampled at predose and 2 min postdose of the 1st dosing on Days 1 and 28. Approximately 0.36 mL of blood was collected from the jugular vein of surviving TK animals at each time point. Whole blood samples were anticoagulated with EDTA-K2 and centrifuged at 2°C–8°C and 1800 × g for 10 min. The harvested plasma was stored below −66°C before the analysis. LC-MS/MS methods (liquid chromatograph/mass spectrometer) were used to detect concentrations of LPM3480392 at each time point. TK parameters (AUC, Cmax, Tmax) were calculated by Phoenix WinNonlin (Pharsight) 8.2. The detection instruments include ultra-performance liquid chromatography (Waters, United States ACQUITY UPLC I -CLASS) and triple quadrupole tandem mass spectrometer (Waters, United States, Xevo TQ-S).", "note": "Where two headings read alike, the source gives them in different places.", "data": [{"smiles": "Fc1ccc([C@]2(CCNCc3cccc(Cl)c3)CCO[C@]3(CCOC3)C2)nc1", "note": "[LPM3480392]", "values": [{"measurement": "concentration at 2 min", "setting": "female, 1.2 mg/kg/day, 1.2 mg/kg/day iv, 1st dosing day, F, read-out: C2min (The 2nd dosing)", "value": "169 ± 26.2", "unit": "ng/mL"}, {"measurement": "concentration at 2 min", "setting": "female, 1.2 mg/kg/day, 1.2 mg/kg/day iv, 1st dosing day, F, read-out: C2min (The 3rd dosing)", "value": "157 ± 25.5", "unit": "ng/mL"}, {"measurement": "concentration at 2 min", "setting": "female, 1.2 mg/kg/day, 1.2 mg/kg/day iv, 28th dosing day, F, read-out: C2min (The 1st dosing)", "value": "187 ± 20", "unit": "ng/mL"}, {"measurement": "concentration at 2 min", "setting": "female, 1.2 mg/kg/day, 1.2 mg/kg/day iv, 28th dosing day, F, read-out: C2min (The 2nd dosing)", "value": "167 ± 14.1", "unit": "ng/mL"}, {"measurement": "concentration at 2 min", "setting": "female, 1.2 mg/kg/day, 1.2 mg/kg/day iv, 28th dosing day, F, read-out: C2min (The 3rd dosing)", "value": "166 ± 16.1", "unit": "ng/mL"}, {"measurement": "concentration at 2 min", "setting": "female, 2.4 mg/kg/day, 2.4 mg/kg/day iv, 1st dosing day, F, read-out: C2min (The 1st dosing)", "value": "331 ± 25.1", "unit": "ng/mL"}, {"measurement": "concentration at 2 min", "setting": "female, 2.4 mg/kg/day, 2.4 mg/kg/day iv, 1st dosing day, F, read-out: C2min (The 2nd dosing)", "value": "292 ± 33.6", "unit": "ng/mL"}, {"measurement": "concentration at 2 min", "setting": "female, 2.4 mg/kg/day, 2.4 mg/kg/day iv, 1st dosing day, F, read-out: C2min (The 3rd dosing)", "value": "234 ± 52.1", "unit": "ng/mL"}, {"measurement": "concentration at 2 min", "setting": "female, 2.4 mg/kg/day, 2.4 mg/kg/day iv, 28th dosing day, F, read-out: C2min (The 1st dosing)", "value": "356 ± 81.9", "unit": "ng/mL"}, {"measurement": "concentration at 2 min", "setting": "female, 2.4 mg/kg/day, 2.4 mg/kg/day iv, 28th dosing day, F, read-out: C2min (The 2nd dosing)", "value": "387 ± 54.9", "unit": "ng/mL"}, {"measurement": "concentration at 2 min", "setting": "female, 2.4 mg/kg/day, 2.4 mg/kg/day iv, 28th dosing day, F, read-out: C2min (The 3rd dosing)", "value": "323 ± 20.7", "unit": "ng/mL"}, {"measurement": "AUC(0-t)", "setting": "female, 0.6 mg/kg/day, 0.6 mg/kg/day iv, 1st dosing day, F", "value": "319 ± 56", "unit": "ng·h/mL"}, {"measurement": "AUC(0-t)", "setting": "female, 0.6 mg/kg/day, 0.6 mg/kg/day iv, 28th dosing day, F", "value": "331 ± 48.3", "unit": "ng·h/mL"}, {"measurement": "AUC(0-t)", "setting": "female, 1.2 mg/kg/day, 1.2 mg/kg/day iv, 1st dosing day, F", "value": "719 ± 122", "unit": "ng·h/mL"}, {"measurement": "AUC(0-t)", "setting": "female, 1.2 mg/kg/day, 1.2 mg/kg/day iv, 28th dosing day, F", "value": "735 ± 63.4", "unit": "ng·h/mL"}, {"measurement": "AUC(0-t)", "setting": "female, 2.4 mg/kg/day, 2.4 mg/kg/day iv, 1st dosing day, F", "value": "1310 ± 57.9", "unit": "ng·h/mL"}, {"measurement": "AUC(0-t)", "setting": "female, 2.4 mg/kg/day, 2.4 mg/kg/day iv, 28th dosing day, F", "value": "1580 ± 129", "unit": "ng·h/mL"}, {"measurement": "concentration at 2 min", "setting": "male, 0.6 mg/kg/day, 0.6 mg/kg/day iv, 1st dosing day, M, read-out: C2min (The 1st dosing)", "value": "98.1 ± 21.3", "unit": "ng/mL"}, {"measurement": "concentration at 2 min", "setting": "male, 0.6 mg/kg/day, 0.6 mg/kg/day iv, 1st dosing day, M, read-out: C2min (The 2nd dosing)", "value": "70.5 ± 14.7", "unit": "ng/mL"}, {"measurement": "concentration at 2 min", "setting": "male, 0.6 mg/kg/day, 0.6 mg/kg/day iv, 1st dosing day, M, read-out: C2min (The 3rd dosing)", "value": "64.7 ± 10.8", "unit": "ng/mL"}, {"measurement": "concentration at 2 min", "setting": "male, 0.6 mg/kg/day, 0.6 mg/kg/day iv, 28th dosing day, M, read-out: C2min (The 1st dosing)", "value": "84.3 ± 20.2", "unit": "ng/mL"}, {"measurement": "concentration at 2 min", "setting": "male, 0.6 mg/kg/day, 0.6 mg/kg/day iv, 28th dosing day, M, read-out: C2min (The 2nd dosing)", "value": "77.9 ± 8.2", "unit": "ng/mL"}, {"measurement": "concentration at 2 min", "setting": "male, 0.6 mg/kg/day, 0.6 mg/kg/day iv, 28th dosing day, M, read-out: C2min (The 3rd dosing)", "value": "79.4 ± 7.61", "unit": "ng/mL"}, {"measurement": "concentration at 2 min", "setting": "male, 1.2 mg/kg/day, 1.2 mg/kg/day iv, 1st dosing day, M, read-out: C2min (The 1st dosing)", "value": "170 ± 10.7", "unit": "ng/mL"}, {"measurement": "concentration at 2 min", "setting": "male, 1.2 mg/kg/day, 1.2 mg/kg/day iv, 1st dosing day, M, read-out: C2min (The 2nd dosing)", "value": "142 ± 28.9", "unit": "ng/mL"}, {"measurement": "concentration at 2 min", "setting": "male, 1.2 mg/kg/day, 1.2 mg/kg/day iv, 1st dosing day, M, read-out: C2min (The 3rd dosing)", "value": "139 ± 29.2", "unit": "ng/mL"}, {"measurement": "concentration at 2 min", "setting": "male, 1.2 mg/kg/day, 1.2 mg/kg/day iv, 28th dosing day, M, read-out: C2min (The 1st dosing)", "value": "171 ± 26.2", "unit": "ng/mL"}, {"measurement": "concentration at 2 min", "setting": "male, 1.2 mg/kg/day, 1.2 mg/kg/day iv, 28th dosing day, M, read-out: C2min (The 2nd dosing)", "value": "113 ± 9.1", "unit": "ng/mL"}, {"measurement": "concentration at 2 min", "setting": "male, 1.2 mg/kg/day, 1.2 mg/kg/day iv, 28th dosing day, M, read-out: C2min (The 3rd dosing)", "value": "131 ± 18.7", "unit": "ng/mL"}, {"measurement": "concentration at 2 min", "setting": "male, 2.4 mg/kg/day, 2.4 mg/kg/day iv, 1st dosing day, M, read-out: C2min (The 1st dosing)", "value": "328 ± 33.8", "unit": "ng/mL"}, {"measurement": "concentration at 2 min", "setting": "male, 2.4 mg/kg/day, 2.4 mg/kg/day iv, 1st dosing day, M, read-out: C2min (The 2nd dosing)", "value": "289 ± 10.5", "unit": "ng/mL"}, {"measurement": "concentration at 2 min", "setting": "male, 2.4 mg/kg/day, 2.4 mg/kg/day iv, 1st dosing day, M, read-out: C2min (The 3rd dosing)", "value": "225 ± 40.9", "unit": "ng/mL"}, {"measurement": "concentration at 2 min", "setting": "male, 2.4 mg/kg/day, 2.4 mg/kg/day iv, 28th dosing day, M, read-out: C2min (The 1st dosing)", "value": "346 ± 46", "unit": "ng/mL"}, {"measurement": "concentration at 2 min", "setting": "male, 2.4 mg/kg/day, 2.4 mg/kg/day iv, 28th dosing day, M, read-out: C2min (The 2nd dosing)", "value": "259 ± 68.3", "unit": "ng/mL"}, {"measurement": "concentration at 2 min", "setting": "male, 2.4 mg/kg/day, 2.4 mg/kg/day iv, 28th dosing day, M, read-out: C2min (The 3rd dosing)", "value": "317 ± 47.9", "unit": "ng/mL"}, {"measurement": "AUC(0-t)", "setting": "male, 0.6 mg/kg/day, 0.6 mg/kg/day iv, 1st dosing day, M", "value": "310 ± 35.6", "unit": "ng·h/mL"}, {"measurement": "AUC(0-t)", "setting": "male, 0.6 mg/kg/day, 0.6 mg/kg/day iv, 28th dosing day, M", "value": "366 ± 14.7", "unit": "ng·h/mL"}, {"measurement": "AUC(0-t)", "setting": "male, 1.2 mg/kg/day, 1.2 mg/kg/day iv, 1st dosing day, M", "value": "607 ± 83.4", "unit": "ng·h/mL"}, {"measurement": "AUC(0-t)", "setting": "male, 1.2 mg/kg/day, 1.2 mg/kg/day iv, 28th dosing day, M", "value": "625 ± 28.9", "unit": "ng·h/mL"}, {"measurement": "AUC(0-t)", "setting": "male, 2.4 mg/kg/day, 2.4 mg/kg/day iv, 1st dosing day, M", "value": "1190 ± 87.1", "unit": "ng·h/mL"}, {"measurement": "AUC(0-t)", "setting": "male, 2.4 mg/kg/day, 2.4 mg/kg/day iv, 28th dosing day, M", "value": "1400 ± 168", "unit": "ng·h/mL"}]}]}
